According to US20240376070A1, “GPR52 MODULATOR COMPOUNDS” (NXERA PHARMA UK LIMITED, priority 2021, published 2024):
≈ marks a conversion by molar mass, not a printed value.

Assays:
[1] = molecular target: T1, human GPR52 (Homo sapiens, UniProt Q9Y2T5); experiment: GPR52 Agonist Functional cAMP Assay; format: cell-based; settings: HEKf cells infected with human GPR52 BacMam, cAMP HTRF, 30 min 37° C.; read-out: pEC50 average (converted)
T1 construct: expressed in transfected cells; host or cells: HEKf suspension cells, BacMam (modified baculovirus) transduction
Experimental: HEKf suspension cells were infected for 24 h with 0.1% v/v human GPR52 expressing BacMam virus, a modified baculovirus designed for mammalian gene expression. Following BacMam infection, cells were pelleted by centrifugation (335 g, 5 min), resuspended in cell freezing medium (Sigma) and frozen at −150° C. until required. On experiment day, 25 nL GPR52 compound dilutions, prepared in DMSO, were stamped onto proxiplates (PerkinElmer) by a LabCyte ECHO acoustic dispenser. Frozen cells were thawed and resuspended in assay stimulation buffer (Cisbio) containing 0.5 mM 3-iso-butyl-1-methylxanthine (IBMX, Sigma) to achieve a density of 2000 cells per well. 10 μl cells were added to assay plates using a Multidrop Combi Reagent Dispenser (ThermoFisher) before centrifugation (1 min). Cells were incubated with compounds at 37° C. for 30 min prior to addition of cAMP detection reagents (HiRange cAMP kit, Cisbio) which were prepared according to the manufacturer's instructions. Plates were shaken for 1 h at room temperature before reading on a PHERAstar FS plate reader (BMG Labtech) using standard HTRF settings. HTRF ratios were obtained by dividing the acceptor emissions (665 nm) by the donor emissions (620 nm) and multiplying by 10,000. […] Further pharmacokinetic data for Intermediate 6 is provided in Applicant's earlier application PCT/GB2021/050638 (see Example 39).

[2] = Plasma concentration-time data after PO dose of Example 2 in Beagle dogs; format: in vivo; settings: dog, PO Example 2, all time points
Experimental: (§1) Systemic exposure of Example 2 and Intermediate 6 (Example 39 of Applicant's earlier application PCT/GB2021/050638 (WO2021/181122A1)) were assessed in male Sprague-Dawley rats and male Beagle dogs following oral (per os, PO) administration of Example 2. Plasma concentration-time data (mean values±standard deviation) are detailed in Tables 4 and 5.
(§2) Three male Sprague-Dawley rats (weighing 269-270 g) and three male Beagle dogs (weighing 7-10 kg), were administered a single dose of Example 2 via PO route, using the dose and vehicle specified in Table #. Following dosing, blood samples were taken at several time points (pre-dose, 5 min, 15 min, 30 min, 1 h, 2 h, 4 h, 8 h, 12 h and 24 h in both species, plus additional samples at 32 h and 48 h in dog) via serial bleeding of jugular vein (rat) or cephalic vein (dog), and centrifuged to separate plasma for quantitative bioanalysis of Example 2 and Intermediate 6 by LC-MS/MS.

[3] = Plasma concentration-time data after PO dose of Example 2 in Sprague-Dawley rats; format: in vivo; settings: rat, PO Example 2, all time points
Experimental: as §1, §2

[4] = Thermodynamic solubility in biorelevant media; format: physicochemical; settings: thermodynamic from solid
Experimental: This experiment was designed to evaluate the thermodynamic solubility of Example 2 in various biorelevant media (Blank Fasted State Simulated Intestinal Fluid (FaSSIF) pH 6.5, FaSSIF pH 6.5 and simulated gastric fluid (SGF) without enzyme pH 1.2).
A 10 mM stock solution of Example 2 in dimethyl sulfoxide (DMSO) was prepared. From the 10 mM stock solution, a 1 mM intermediate solution of Example 2 in DMSO was prepared. A working solution of 1 μM of Example 2 was prepared by diluting the intermediate solution in mobile phase solution (methanol: 2 mM ammonium acetate containing suitable internal standard—carbamazepine). The working solution was serially diluted in mobile phase solution up to 8 linearity points to prepare standard solutions for plotting a calibration curve. The area for each standard solution was analyzed using LCMS/MS. The normalized area values were plotted vs. concentration to achieve a calibration equation.
Example 2 (1 mg) was added to 1 mL of each desired biorelevant media (SGF without enzyme pH 1.2, Blank FaSSIF pH 6.5 and FaSSIF pH 6.5) to achieve a theoretical concentration equivalent to 1 mg/mL.
The resulting solutions were then kept on RotoSpin (shaker) at 50 rpm for 4 hours at room temperature (25° C.). After the incubation period, the content was filtered through a 0.45 μm PVDF (hydrophilic) syringe filter and the filtrate was taken for quantification by LCMS/MS. The filtrate was diluted in mobile phase and subsequently, the area under the curve (AUC) was ascertained for diluted sample using LCMS/MS. From the AUC of test sample the corresponding concentration was calculated using 6 to 8 point linearity/calibration curve.

[5] = Rat IV brain penetration (Kp,uu); format: in vivo, Sprague-Dawley rats; settings: male, Sprague-Dawley, brain and plasma, IV 1 mg/kg, n = 3, unbound brain-to-plasma ratio
Experimental: Plasma and brain exposure were evaluated to assess the brain penetration of Intermediate 6 (Example 39 of WO2021/181122A1), following IV administration. Unbound brain-to-plasma ratio (Kp,uu) was calculated, as detailed in Table 7, following experimental determination of binding in rat plasma and brain homogenate.
For brain penetration assessment, male Sprague-Dawley rats (n=3) were administered a single 1 mg/kg dose (formulated in 10% DMAC+10% Solutol HS15+80% saline) via the IV route. After 10 min post-dose, animals were sacrificed and brains extracted, homogenised with 2 volumes (w/v) of 50 mM sodium phosphate buffer (pH 7.4), and analysed by LC-MS/MS. Blood samples were removed at the same time point via tail vein bleed, centrifuged and the plasma analysed by LC-MS/MS.
To permit calculation of unbound brain-to-plasma ratio (Kp,uu), test compound binding in rat plasma and brain homogenate was performed, using Rapid Equilibrium Dialysis (RED). […]
After incubation, the contents of each plasma/brain and buffer compartment were removed and mixed with equal volumes of control dialysed buffer or plasma/brain to maintain matrix similarity for analysis. […] Fraction unbound (Fu) in plasma and brain was calculated using the following formula, then used to correct total plasma and brain concentrations to derive the Kp,uu:

[6] = Rat IV pharmacokinetics; format: in vivo, Sprague-Dawley rats; settings: male, Sprague-Dawley, plasma, IV 1 mg/kg, n = 3
Experimental: The pharmacokinetic profiles of Intermediate 6 (Example 39 of WO2021/181122A1) were assessed in male Sprague-Dawley rats via intravenous (IV) delivery. Pharmacokinetic data (mean values±standard deviation) for Intermediate 6 (Example 39 of WO2021/181122A1) are detailed in Table 7.
For pharmacokinetic analysis, groups of three male Sprague-Dawley rats, ranging in weight between 200 and 230 g, were administered a single dose of Intermediate 6 (Example 39 of WO2021/181122A1) via IV, using the dose, dose volume and vehicle specified in Table 7. Following dosing, blood samples were taken at several time points (pre-dose, 2 min, 5 min, 15 min, 30 min, 1 h, 3 h, 6 h, 12 h and 24 h for IV) via serial tail vein bleeds, and centrifuged to separate plasma for analysis by LC-MS/MS. WinNonlin v8.2 statistics software (Pharsight Corporation, California, USA) was used to generate pharmacokinetic parameters using non-compartmental analysis.

[7] = system: caffeine-induced hyperlocomotor response; experiment: Caffeine-induced locomotor activity in rat; format: in vivo, Sprague-Dawley rats; settings: rat, 0.1, 0.3, 1 and 3 mg/kg PO, 60 min before caffeine 15 mg/kg s.c., 2 h activity
From the text: Caffeine, a non-selective adenosine receptor antagonist, is a psychostimulant which increases rodent locomotor activity principally via blockade of A2A receptors (Br. J. Pharmacol., 2000, 129, 1465). These receptors are densely expressed on the terminals of GABAergic striatopallidal neurons in the indirect pathway of the basal ganglia, in which dopamine D2 receptors are co-expressed (J. Comp. Neurol., 1998, 401, 163; J. Comp. Neurol., 2001, 431, 331). Tonic activation of A2A receptors decreases the affinity of D2 receptors to dopamine and antagonism of A2A receptors facilitates dopaminergic signalling (Curr. Pharm. Des., 2008, 14, 1468). […] Male Sprague-Dawley rats (200-250 g) were housed in groups with a 12 h light/dark cycle (lights on at 07.00), at an ambient temperature of 21±2° C. and with standard pelleted diet and water ad libitum. Testing was carried out in the light phase. On the day of the experiment, animals were habituated to the locomotor cages for a 60-minute period. Subsequently, they were dosed with vehicle or Intermediate 6 (Example 39 of WO2021/181122A1) (0.1, 0.3, 1 and 3 mg/kg) by the oral route and returned to the appropriate locomotor cage. […] Locomotor activity was assessed for a 2 h period after caffeine treatment. […] SEMs were calculated from the residuals of the statistical model. […]

T1 sequence (Q9Y2T5 whole entry): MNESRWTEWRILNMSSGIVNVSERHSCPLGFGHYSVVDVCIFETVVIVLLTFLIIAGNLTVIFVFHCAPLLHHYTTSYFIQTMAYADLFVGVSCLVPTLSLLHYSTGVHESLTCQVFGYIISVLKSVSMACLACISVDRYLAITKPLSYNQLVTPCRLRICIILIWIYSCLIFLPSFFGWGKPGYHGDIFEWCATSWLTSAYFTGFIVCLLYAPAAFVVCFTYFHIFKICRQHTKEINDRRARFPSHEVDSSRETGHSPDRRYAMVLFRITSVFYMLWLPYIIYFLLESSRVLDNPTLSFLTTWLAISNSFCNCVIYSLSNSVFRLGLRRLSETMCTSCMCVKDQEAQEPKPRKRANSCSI

Compound: CNC(=O)c1c(C)nn(-c2cc(Cc3cc(F)cc(C(F)(F)F)c3)ccn2)c1CO [Intermediate 12, 1-(4-(3-fluoro-5-(trifluoromethyl)benzyl)pyridin-2-yl)-5-(hydroxymethyl)-N,3-dimethyl-1H-pyrazole-4-carboxamide]
- EC50 [1]: 10 nM

Compound: Cc1nn(-c2ccnc(Cc3cc(F)cc(C(F)(F)F)c3)c2)c(CO)c1C(N)=O [Intermediate 10, 1-(2-(3-fluoro-5-(trifluoromethyl)benzyl)pyridin-4-yl)-5-(hydroxymethyl)-3-methyl-1H-pyrazole-4-carboxamide]
- EC50 [1]: 31.6 nM

Compound: Cc1nn(-c2cc(Cc3cc(F)cc(C(F)(F)F)c3)ccn2)c(COP(=O)(O)O)c1C(N)=O [Example 2]
- Plasma concentrations of Example 2 [2]: < 1 ng/mL
- Plasma concentrations of Example 2 [3]: < 1 ng/mL
- solubility at 4 h ([4]; SGF without enzyme, simulated gastric fluid, SGF, pH 1.2, 25° C.): 13.1 µM (≈ 6.38 µg/mL)
- solubility at 4 h ([4]; fassgf or other biorelevant, Blank FaSSIF, pH 6.5, 25° C.): 1890 µM (≈ 922 µg/mL)
- solubility at 4 h ([4]; FaSSIF, pH 6.5, 25° C.): 1830 µM (≈ 894 µg/mL)

Compound: Cc1nn(-c2ccnc(Cc3cc(F)cc(C(F)(F)F)c3)c2)c(CO)c1C(=O)NCCO [Intermediate 11, 1-(2-(3-fluoro-5-(trifluoromethyl)benzyl)pyridin-4-yl)-N-(2-hydroxyethyl)-5-(hydroxymethyl)-3-methyl-1H-pyrazole-4-carboxamide]
- EC50 [1]: 31.6 nM

Compound: Cc1nn(-c2cc(Cc3cc(F)cc(C(F)(F)F)c3)ccn2)c(CO)c1C(N)=O [Intermediate 6, 1-(4-(3-fluoro-5-(trifluoromethyl)benzyl)pyridin-2-yl)-5-(hydroxymethyl)-3-methyl-1H-pyrazole-4-carboxamide]
- Kp uu at 10 min [5]: 0.42 ± 0.08
- EC50 [1]: 6.31 nM
- clearance [6]: 8.8 ± 1.1 mL/min/kg
- effect on caffeine-induced hyperlocomotor response [7]: dose-dependent reduction of the caffeine-induced hyperlocomotor response, reaching statistical significance at 1 and 3 mg/kg

Compound: Cc1nn(-c2cc(Cc3cc(F)cc(C(F)(F)F)c3)ccn2)c(CO)c1C(=O)NCCO [Intermediate 7, 1-(4-(3-fluoro-5-(trifluoromethyl)benzyl)pyridin-2-yl)-N-(2-hydroxyethyl)-5-(hydroxymethyl)-3-methyl-1H-pyrazole-4-carboxamide]
- EC50 [1]: 2.51 nM

Compound: Cc1nn(-c2cc(Cc3cc(F)cc(C(F)F)c3)ccn2)c(CO)c1C(N)=O [Intermediate 16, 1-(4-(3-(difluoromethyl)-5-fluorobenzyl)pyridin-2-yl)-5-(hydroxymethyl)-3-methyl-1H-pyrazole-4-carboxamide]
- EC50 [1]: 3.98 nM
